Experimental data reported in patent US4812462A, “4,5,6,7-tetrahydro-1H-imidazo[4,5-c]pyridine-6-carboxylic acid analogs having antihypertensive activity” (Warner-Lambert Company, priority 1986, dated 1989).

Experiments:
[1] = biological target: angiotensin II binding to rat adrenal receptor preparations; assay: inhibition of 125I-angiotensin II binding to rat adrenal receptor preparations
[2] = test system: 2 kidney, 1-clip Goldblatt hypertensive rat (RHR); assay: blood pressure lowering in conscious 2 kidney, 1-clip Goldblatt (renal) hypertensive rats (RHR), AHP3; assay type: in vivo; details: 30 mg/kg ip, read-out: Max % decrease in blood pressure, 30 mg/kg ip in RHR
Experimental: Thus, for example, compounds of formula I when administered intraperitoneally or orally to 2 kidney, 1-clip Goldblatt (renal) hypertensive rats (See S Sen, et al., "Role of Renin-Angiotensin System in Chronic Renal Hypertensive Rats," Hypertension 1:427-434 (1979) and Clin. Soc. 57:53-62, 1979, "Antihypertensive Effect of Prolonged Blockade of Angiotensin Formation in Benign and Malignant, one-and two-kidney Goldblatt Hypertensive Rats".) at doses in the range of 1-100 mg/kg cause 10-80 mmHg drops in blood pressure. […] Angiotensin binding inhibition activity and blood pressure lowering activity in renal hypertensive rats of the optimally substituted examples of formula I are listed in Table 1. Blood pressure lowering activity in spontaneously hypertensive rats of optimally substituted examples of formula II are listed in Table 2.
[…] EVALUATION (AHP3)
A Method for the Direct Monitoring of Aortic Blood Pressure and Heart Rate from Conscious Rats
The continuous monitoring of pulsatile blood pressure (BP) from unrestrained conscious rats surgically equipped with polyethylene cannulas was accomplished by means of a computer assisted data capture scheme (CADCS). The basic elements of the methodology are the cannulation procedure and the CADCS.
Rats were anesthetized with Telazol (1:1 tiletamine HCl and zolazepam HCl); 20-40 mg/kg IM and the descending aorta exposed via a midline incision. Cannulas fabricated from polyethylene tubing were inserted into the aorta via an undersized puncture hole below the renal arteries. The puncture hole was made by a 23 G disposable needle with a section of the aorta clamped off above and below the puncture site. The cannulas, consisting of a PE100 (0.86 mm ID) body and a PE50 (0.58 mm ID) tip, were attached to a trocar, inserted through the psoas muscle, and passed subcutaneously along the midline of the back and externalized between the ears. The cannulas were anchored to the psoas muscle and between the scalulae (3-0 green braided suture). The midline incision was closed in two steps (muscle first, skin second) using continuous over-and-over sutures (4-0 chronic). Each rat was then given penicillin 30,000 units subcutaneously (Penicillin G Procaine Sterile Suspension).
The rats were fitted with a harness-springswivel assembly designed to protect the cannula and to provide the rat relative freedom of movement. The harnesses were fabricated from nylon hook and loop tape cemented to a metal plate to which spring wires (18-8 stainless steel), were attached to brass swivels. Each polyethylene cannula was channeled through a spring and connected through a swivel to a pressure transducer (Model P23Gb; Statham Instruments; Hato Rey, Puerto Rico) and an infusion pump (Sage model 234-7; Orion Research, Cambridge, Mass.) by means of PE100 tubing. While on test, each rat received a continuous slow infusion of heparinized saline solution (approximately 0.40 ml or 40 units of heparin per 24 hr period) to prevent clot formation. Additional "flushes" of the cannula with heparinized saline were carried out when the aortic pulse pressure (systolic minus diastolic) was less than 25 mm Hg.
The pulsatile blood pressure of each of 32 rats was monitored continuously by two signal conditioning units (Gould, Clev., Ohio). The signals from these units were monitored and digital data for mean, systolic, and diastolic blood pressures as well as for heart rate were calculated every 5 min by two in-laboratory computers (Hewlett Packard, Cupertino, Calif.). These in-laboratory computers have the capacity to store 32 days of this 5 min data. Communication with the mainframe research computer (IBM 3083) from the two inlaboratory computers allowed for data analysis and report generation. […]

SMILES	IC50 [1] [µM]	change in vivo at 30 mg/kg [2] [%]
O=C(O)C1Cc2c(ncn2Cc2ccccc2O)CN1C(=O)C(c1ccccc1)c1ccccc1 (stereo not shown) [Example 17, 1-(2-Hydroxyphenyl)methyl-5-diphenylacetyl-4,5,6,7-tetrahydro-1H-imidazo[4,5-c]pyridine-6-carboxylic acid]	0.69	-21
O=C(O)C1Cc2c(ncn2Cc2ccc(C(F)(F)F)cc2)CN1C(=O)C(c1ccccc1)c1ccccc1 (stereo not shown) [Example 21, 1-(4-Trifluoromethylphenyl)methyl-5-diphenylacetyl-4,5,6,7 tetrahydro-1H-imidazo[4,5-c]pyridine-6-carboxylic acid]	0.19	-18

Further lines, with some results ahead:

IC50 [1] [µM]	SMILES	change in vivo at 30 mg/kg [2] [%]
0.07	COc1ccc(Cn2cnc3c2C[C@@H](C(=O)O)N(C(=O)C(c2ccccc2)C2CCCC2)C3)cc1C (stereo partly drawn) [Example 24, (S)-5-(cyclopentylphenylacetyl)-4,5,6,7-tetrahydro-1-[(4-methoxy-3-methylphenyl)methyl]-1H-imidazo-[4,5-c]pyridine-6-carboxylic acid]	-16
1	O=C(O)C1Cc2c(ncn2Cc2ccccc2)CN1C(=O)C(c1ccccc1)c1ccccc1 (stereo not shown) [Example 169, 5-(Diphenylacetyl)-4,5,6,7-tetrahydro-1-(phenylmethyl)-1H-imidazo[4,5-c]pyridine-6-carboxylic acid]	-20
0.27	Cc1cccc(Cn2cnc3c2C[C@@H](C(=O)O)N(C(=O)C(c2ccccc2)c2ccccc2)C3)c1 [Example 75, 1H-Imidazo[4,5-c]pyridine-6-carboxylic acid, 5-(diphenylacetyl)-4,5,6,7-tetrahydro-1-[(3-methylphenyl)methyl]-, (S)-]	-30
